Like-named read-outs stand apart in the source and are kept apart here.
Columns and labels:
TACE = target: T1, TACE (Homo sapiens, UniProt P78536); test: TACE inhibition experiment (in vitro); type: biochemical
T1 construct: made in house; host or cells: mammalian cells or insect cells

Human MMP3 = target: T2, Human MMP3 (Homo sapiens, UniProt P08254); test: MMP3 inhibition experiment; type: biochemical; settings: concentration required for 50% inhibition of enzyme activity; read-out: IC50 value MMP-3
T2 construct: purchased Calbiochem 444217
T2 sequence (P08254 100-272 limits assumed): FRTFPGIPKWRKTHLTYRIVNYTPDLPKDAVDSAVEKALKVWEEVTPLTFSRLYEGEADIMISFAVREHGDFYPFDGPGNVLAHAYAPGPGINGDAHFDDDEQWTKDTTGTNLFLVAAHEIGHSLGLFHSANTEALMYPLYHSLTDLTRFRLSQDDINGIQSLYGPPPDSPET
Summary of the method: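 Fluorescence-quenched substrate NFF-3 (MOCAc/Dnp peptide, 20 μM as prepared) cleaved by 5 ng human MMP3 over 5 hours at 37° C, with inhibition measured from substrate fluorescence.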

Human MMP13 = target: T3, Human MMP13 (Homo sapiens, UniProt P45452); test: MMP13 inhibition experiment; type: biochemical; settings: concentration required for 50% inhibition of enzyme activity; read-out: IC50 value MMP-13
T3 construct: purchased Chemicon CC068
Description: Human MMP13 (Chemicon #CC068) in amount of 90 μL (200 ng) was activated by mixing with 10 μL of 10 mM APMA, followed by reaction for 1 hour at 37° C. This enzyme solution in amount of 0.6 μL was diluted to 90 μL with the assay buffer A, which was added to 90 μL of 20 μM fluorescent substrate (Dnp-Pro-Cha-Gly-Cys(Me)-His-Ala-Lys(Nma)-NH2) prepared in the assay buffer B, followed by reaction for 4 hours at 37° C.

Human MMP17 = target: T4, Human MMP17 (Homo sapiens, UniProt Q9ULZ9); test: MMP17 inhibition test; type: biochemical; settings: concentration required for 50% inhibition of enzyme activity; read-out: IC50 value MMP-17
T4 construct: purchased Calbiochem 475940
T4 sequence (Q9ULZ9 126-300 limits assumed): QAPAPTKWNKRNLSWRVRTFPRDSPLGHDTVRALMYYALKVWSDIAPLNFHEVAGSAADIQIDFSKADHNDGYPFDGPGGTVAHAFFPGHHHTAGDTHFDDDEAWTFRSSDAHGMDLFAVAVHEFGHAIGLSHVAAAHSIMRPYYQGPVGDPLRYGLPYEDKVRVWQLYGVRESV

[1] = tested on: TNF-α production (release); test: Study for suppression of TNF-α production (release) in vivo; settings: male Lewis rats, LPS 1 mL/kg i.v.; test compound 3 mg/kg subcutaneous 30 minutes later; plasma TNF-α 90 minutes after LPS (ELISA)
Description: Lipopolysaccharide (LPS) from E. coli (available from SIGMA) was dissolved in physiological saline to prepare a solution of LPS (1 mg/mL). […] The rats received the LPS solution (1 mL/kg) intravenously, and 30 minutes later, the prepared solution of the test compound was administered subcutaneously (5 mL/kg, containing 3 mg of test compound/kg). 90 minutes after administration of LPS, blood was collected from the tail vein and centrifuged for 10 minutes at 3000 rpm at 4° C. to obtain plasma. The plasma TNF-α concentration was determined by an ELISA kit specific for rat TNF-α.

Human MMP1 = target: T5, Human MMP1 (Homo sapiens, UniProt P03956); test: MMP1 inhibition experiment; type: biochemical; settings: read-out: IC50 value MMP-1
T5 construct: purchased Calbiochem 444208
T5 sequence (P03956 100-469): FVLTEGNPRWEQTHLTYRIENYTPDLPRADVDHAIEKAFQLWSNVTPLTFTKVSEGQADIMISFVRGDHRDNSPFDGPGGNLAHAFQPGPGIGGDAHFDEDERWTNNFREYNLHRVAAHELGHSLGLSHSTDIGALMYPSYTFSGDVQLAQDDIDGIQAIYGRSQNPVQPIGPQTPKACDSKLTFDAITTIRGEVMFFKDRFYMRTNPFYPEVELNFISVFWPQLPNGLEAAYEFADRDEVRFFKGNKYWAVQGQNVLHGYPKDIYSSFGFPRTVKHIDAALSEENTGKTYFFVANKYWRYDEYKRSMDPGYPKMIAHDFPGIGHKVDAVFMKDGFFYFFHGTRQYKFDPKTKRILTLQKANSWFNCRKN
Description: (§1) The methods of inhibition experiments carried out for various MMPs are described below.
This enzyme solution in amount of 10 μL was diluted to 90 μL with the assay buffer A, which was added to 90 μL of 20 μM fluorescent substrate (Dnp-Pro-Cha(β-cyclohexylalanyl)-Gly-Cys(Me)-His-Ala-Lys(Nma)-NH2) prepared in the assay buffer B, followed by reaction for 5 hours at 37° C.

Human MMP9 = target: T6, Human MMP9 (Homo sapiens, UniProt P14780); test: MMP9 inhibition experiment; type: biochemical; settings: read-out: IC50 value MMP-9
T6 construct: purchased Calbiochem 444231
T6 sequence (P14780 107-707 limits assumed): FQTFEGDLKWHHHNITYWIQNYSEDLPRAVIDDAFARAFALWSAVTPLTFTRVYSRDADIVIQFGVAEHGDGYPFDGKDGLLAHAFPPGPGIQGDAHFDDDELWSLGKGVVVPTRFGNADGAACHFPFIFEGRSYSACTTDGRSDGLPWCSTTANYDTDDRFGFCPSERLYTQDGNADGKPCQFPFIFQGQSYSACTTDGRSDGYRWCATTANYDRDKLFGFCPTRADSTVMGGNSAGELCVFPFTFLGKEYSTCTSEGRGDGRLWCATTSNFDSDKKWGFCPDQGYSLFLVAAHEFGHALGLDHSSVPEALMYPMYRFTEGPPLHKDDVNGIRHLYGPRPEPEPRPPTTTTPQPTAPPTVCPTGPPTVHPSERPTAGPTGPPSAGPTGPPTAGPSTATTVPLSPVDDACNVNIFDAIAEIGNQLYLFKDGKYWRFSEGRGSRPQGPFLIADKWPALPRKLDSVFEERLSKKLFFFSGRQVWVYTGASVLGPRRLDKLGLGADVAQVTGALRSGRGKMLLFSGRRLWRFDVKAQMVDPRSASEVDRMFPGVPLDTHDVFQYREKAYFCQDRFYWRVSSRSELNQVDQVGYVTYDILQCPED
Description: as §1
This enzyme solution in amount of 1 μL was diluted to 90 μL with the assay buffer A, which was added to 90 μL of 20 μM fluorescent substrate (Dnp-Pro-Cha-Gly-Cys(Me)-His-Ala-Lys(Nma)-NH2) prepared in the assay buffer B, followed by reaction for 4 hours at 37° C.

Human MMP14 = target: T7, Human MMP14 (Homo sapiens, UniProt P50281); test: MMP14 inhibition experiment; type: biochemical; settings: concentration required for 50% inhibition of enzyme activity; read-out: IC50 value MMP-14
T7 construct: purchased Biogenesis or Calbiochem 5980-1461 or 475935
Summary of the method: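 Fluorescence assay: substrate Dnp-Pro-Cha-Gly-Cys(Me)-His-Ala-Lys(Nma)-NH2 (20 μM before equal-volume mixing) incubated at 37° C for 5 hours with 4 ng human MMP14.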

Human MMP2 = target: T8, Human MMP2 (Homo sapiens, UniProt P08253); test: MMP2 inhibition experiment; type: biochemical; settings: concentration required for 50% inhibition of enzyme activity; read-out: IC50 value MMP-2
T8 construct: purchased Calbiochem 444213
T8 sequence (P08253 110-660): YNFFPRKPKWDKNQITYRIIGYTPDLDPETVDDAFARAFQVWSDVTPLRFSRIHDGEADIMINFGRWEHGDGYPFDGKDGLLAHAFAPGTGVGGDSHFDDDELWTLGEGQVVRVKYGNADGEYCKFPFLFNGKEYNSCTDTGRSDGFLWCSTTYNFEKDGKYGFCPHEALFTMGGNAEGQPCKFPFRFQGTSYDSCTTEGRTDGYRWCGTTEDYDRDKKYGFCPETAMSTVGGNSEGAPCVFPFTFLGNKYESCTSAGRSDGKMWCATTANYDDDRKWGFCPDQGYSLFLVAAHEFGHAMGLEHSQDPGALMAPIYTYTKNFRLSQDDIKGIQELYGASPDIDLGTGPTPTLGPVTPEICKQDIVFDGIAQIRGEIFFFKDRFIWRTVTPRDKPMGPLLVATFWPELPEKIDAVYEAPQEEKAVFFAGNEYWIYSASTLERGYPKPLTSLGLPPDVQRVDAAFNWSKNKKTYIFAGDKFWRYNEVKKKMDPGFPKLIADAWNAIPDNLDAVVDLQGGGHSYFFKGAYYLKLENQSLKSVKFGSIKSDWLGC
Description: This enzyme solution in amount of 10 μL was diluted to 90 μL with the assay buffer A, which was added to 90 μL of 20 μM fluorescent substrate (MOCAc((7-methoxycoumarin-4-yl)acetyl)-Pro-Leu-Gly-Leu-A2pr(Dnp)-Ala-Arg-NH2, Peptide Institute, Inc., #3163-v) prepared in the assay buffer B, followed by reaction for 5 hours at 37° C.

Human MMP8 = target: T9, Human MMP8 (Homo sapiens, UniProt P22894); test: MMP8 inhibition experiment; type: biochemical; settings: concentration required for 50% inhibition of enzyme activity; read-out: IC50 value MMP-8
T9 construct: purchased Calbiochem 444229
T9 sequence (P22894 101-467): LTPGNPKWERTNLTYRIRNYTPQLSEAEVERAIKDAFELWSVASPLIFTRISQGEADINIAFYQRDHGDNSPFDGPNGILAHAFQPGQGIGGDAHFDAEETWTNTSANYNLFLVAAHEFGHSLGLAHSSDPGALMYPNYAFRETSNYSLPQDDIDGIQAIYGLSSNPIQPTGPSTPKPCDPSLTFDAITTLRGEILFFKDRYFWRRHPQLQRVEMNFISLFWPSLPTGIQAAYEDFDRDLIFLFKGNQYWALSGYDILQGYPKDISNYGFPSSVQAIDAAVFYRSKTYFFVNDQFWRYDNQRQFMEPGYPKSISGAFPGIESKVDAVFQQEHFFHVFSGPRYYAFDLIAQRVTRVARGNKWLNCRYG
Summary of the method: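 Human MMP8 activated with APMA for 1 h at 37° C, then incubated with fluorogenic peptide MOCAc-Pro-Leu-Gly-Leu-A2pr(Dnp)-Ala-Arg-NH2 (20 μM stock) for 5 hours at 37° C. Fluorescent substrate cleavage serves as read-out.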

T1 sequence (P78536 215-824): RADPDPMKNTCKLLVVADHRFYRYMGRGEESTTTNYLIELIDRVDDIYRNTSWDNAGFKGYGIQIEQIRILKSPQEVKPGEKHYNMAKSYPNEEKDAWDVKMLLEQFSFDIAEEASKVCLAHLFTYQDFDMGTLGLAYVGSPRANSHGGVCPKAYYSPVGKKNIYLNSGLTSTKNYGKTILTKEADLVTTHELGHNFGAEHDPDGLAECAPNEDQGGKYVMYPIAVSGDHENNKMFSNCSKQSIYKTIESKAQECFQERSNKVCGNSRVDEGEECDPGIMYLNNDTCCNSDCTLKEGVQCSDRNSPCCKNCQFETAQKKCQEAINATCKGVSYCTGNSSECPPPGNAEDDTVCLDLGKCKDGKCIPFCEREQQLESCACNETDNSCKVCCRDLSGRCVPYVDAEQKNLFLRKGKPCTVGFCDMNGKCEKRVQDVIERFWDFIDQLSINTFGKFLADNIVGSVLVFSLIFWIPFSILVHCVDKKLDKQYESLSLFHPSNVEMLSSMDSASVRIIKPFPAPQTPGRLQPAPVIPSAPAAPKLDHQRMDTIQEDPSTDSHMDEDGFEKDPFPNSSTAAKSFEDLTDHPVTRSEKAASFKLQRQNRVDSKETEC

SMILES	IC50 (TACE; concentration required for 50% inhibition of enzyme activity) [µM]	IC50 (Human MMP3) [µM]	IC50 (Human MMP13) [µM]	IC50 (Human MMP17) [µM]	Suppression rate of TNF-α production (release) (%) [1] [%]	IC50 (Human MMP1) [µM]	IC50 (Human MMP9) [µM]	IC50 (Human MMP14) [µM]	IC50 (TACE) [µM]	IC50 (Human MMP2) [µM]	IC50 (Human MMP8) [µM]
Cc1cc(COc2ccc(S(=O)(=O)CC(C=C3CCN(CC(C)C)CC3)N(O)C=O)cc2)c2ccccc2n1 (stereo not drawn) [Example I-24, N-Hydroxy-N-{1-(1-isobutylpiperidin-4-ylidenemethyl)-2-[4-(2-methylquinolin-4-ylmethoxy)benzenesulfonyl]ethyl}formamide]	0.006	10	40	4	56.0						
Cc1cc(COc2ccc(S(=O)(=O)CC(CC3CCC(=O)CC3)N(O)C=O)cc2)c2ccccc2n1 (stereo not drawn) [Example I-2, N-Hydroxy-N-[2-{4-(2-methylquinolin-4-ylmethoxy)benzenesulfonyl}-1-(4-oxocyclohexylmethyl)ethyl]formamide]		1.5	6	0.4	42.3	60	50	53			
Cc1cc(COc2ccc(S(=O)(=O)CC(N(O)C=O)C3(C)CCC4(CC3)OCCO4)cc2)c2ccccc2n1 (stereo not drawn) [Example I-47]		0.6	18	0.4		> 100	> 100	60	0.03	22	15
Cc1cc(COc2ccc(S(=O)(=O)CC(CCC3=CCCC(OC=O)C3)N(O)C=O)cc2)c2ccccc2n1 (stereo not drawn) [Example I-38]		2	22	2.2		57	54	50	0.012	12	46
Cc1cc(COc2ccc(S(=O)(=O)CC(CC3CCOCC3)N(O)C=O)cc2)c2ccccc2n1 (stereo not drawn) [Example I-29]		1.8	18	0.96		> 100	> 100	90	0.0076	19	19
COc1ccc(CN2C(=O)SCC2C(CS(=O)(=O)c2ccc(OCc3cc(C)nc4ccccc34)cc2)N(O)C=O)cc1 (stereo not drawn) [Example I-59]		5.6	35	2.6		54	> 100	60	0.01	80	58
